The source made the active and inactive calls. No cut-off for these calls is given here.
Columns and labels:
Beta-TC6 [1] = experiment: Induction of mitochondrial membrane hyperpolarization in mouse Beta-TC6 cells at 0.9 uM after 24 hrs by JC-1 staining based fluorescence microscopy analysis; format: cell-based
Beta-TC6 [2] = experiment: Induction of insulin secretion in mouse Beta-TC6 cells assessed as fold increase at 0.1 uM incubated for 24 hrs by ELISA relative to control; format: functional
Beta-TC6 [3] = experiment: Induction of mitochondrial membrane hyperpolarization in mouse Beta-TC6 cells at 0.1 uM after 24 hrs by JC-1 staining based fluorescence microscopy analysis; format: cell-based
Beta-TC6 [4] = experiment: Induction of calcium level in mouse Beta-TC6 cells assessed as fold increase at 0.1 uM incubated for 30 mins by Fura-2 AM staining based fluorescence microscopy analysis relative to control; format: functional; settings: 0.5 h
[5] = Induction of glucokinase expression in mouse Beta-TC6 cells assessed as fold increase at 0.1 uM incubated for 24 hrs by Western blotting analysis relative to control; format: functional
Beta-TC6 [6] = experiment: Induction of insulin secretion in mouse Beta-TC6 cells assessed as fold increase at 50 uM incubated for 24 hrs by ELISA relative to control; format: functional
Beta-TC6 [7] = experiment: Induction of mitochondrial membrane hyperpolarization in mouse Beta-TC6 cells at 50 uM after 24 hrs by JC-1 staining based fluorescence microscopy analysis; format: cell-based
Beta-TC6 [8] = experiment: Induction of calcium level in mouse Beta-TC6 cells assessed as fold increase at 50 uM incubated for 30 mins by Fura-2 AM staining based fluorescence microscopy analysis relative to control; format: functional; settings: 0.5 h
[9] = Induction of glucokinase expression in mouse Beta-TC6 cells assessed as fold increase at 50 uM incubated for 24 hrs by Western blotting analysis relative to control; format: functional
[10] = biological target: Dipeptidyl peptidase 4 (Mus musculus) (UniProt P28843); experiment: Inhibition of DPP4 in mouse Beta-TC6 cells assessed as reduction in AMC production at 50 uM measured every min by fluorescence plate reader assay relative to control; format: cell-based
[11] = biological target: Dipeptidyl peptidase 4 (Mus musculus) (UniProt P28843); experiment: Inhibition of DPP4 in mouse Beta-TC6 cells assessed as reduction in AMC production at 50 uM measured every min by fluorescence plate reader assay relative to positive control; format: cell-based
Beta-TC6 [12] = experiment: Cytotoxicity against mouse Beta-TC6 cells assessed as reduction in cell viability at 50 uM incubated for 24 hrs by MTT assay; format: toxicity, cell-based; settings: beta-tc6, 24 h
[13] = Induction of GLUT2 expression in mouse Beta-TC6 cells assessed as fold increase at 50 uM incubated for 24 hrs by Western blotting analysis relative to control; format: functional

Chain of Dipeptidyl peptidase 4 (Mus musculus) (P28843 whole entry, looked up): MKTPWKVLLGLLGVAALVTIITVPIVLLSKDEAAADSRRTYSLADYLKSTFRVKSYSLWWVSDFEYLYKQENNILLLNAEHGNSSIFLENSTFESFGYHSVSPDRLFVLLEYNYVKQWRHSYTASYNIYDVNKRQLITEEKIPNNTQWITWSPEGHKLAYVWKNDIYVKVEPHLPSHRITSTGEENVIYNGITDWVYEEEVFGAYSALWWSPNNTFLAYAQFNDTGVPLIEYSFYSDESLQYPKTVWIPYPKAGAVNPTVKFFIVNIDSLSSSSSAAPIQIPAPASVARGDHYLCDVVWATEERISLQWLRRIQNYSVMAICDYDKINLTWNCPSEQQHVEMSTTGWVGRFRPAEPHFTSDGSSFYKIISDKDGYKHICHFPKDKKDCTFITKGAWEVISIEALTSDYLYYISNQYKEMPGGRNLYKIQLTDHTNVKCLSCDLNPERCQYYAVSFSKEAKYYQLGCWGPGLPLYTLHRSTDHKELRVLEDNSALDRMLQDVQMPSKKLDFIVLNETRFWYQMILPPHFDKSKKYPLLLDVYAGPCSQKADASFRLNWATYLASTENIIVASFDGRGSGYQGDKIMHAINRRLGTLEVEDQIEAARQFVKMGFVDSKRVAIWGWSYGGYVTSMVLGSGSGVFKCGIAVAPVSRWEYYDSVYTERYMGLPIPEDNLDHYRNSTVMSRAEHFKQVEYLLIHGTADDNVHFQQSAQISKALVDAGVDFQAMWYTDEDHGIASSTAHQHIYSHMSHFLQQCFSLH

For `CC(C)[C@@H]1NC(=O)[C@H](C)OC(=O)[C@@H](C(C)C)NC(=O)[C@@H](C(C)C)OC(=O)[C@H](C(C)C)NC(=O)[C@H](C)OC(=O)[C@@H](C(C)C)NC(=O)[C@@H](C(C)C)OC(=O)[C@H](C(C)C)NC(=O)[C@H](C)OC(=O)[C@@H](C(C)C)NC(=O)[C@@H](C(C)C)OC1=O`, the Activity (Beta-TC6 [1]) was “inactive”.
For `COc1ccc(Cl)cc1C(=O)NCCc1ccc(S(=O)(=O)NC(=O)NC2CCCCC2)cc1` [GLYBURIDE], the “fold change (FC)” value (Beta-TC6 [2]) was 4, the Activity (Beta-TC6 [3]) was “Active” and the “fold change (FC)” value (Beta-TC6 [4]) was 2. The “fold change (FC)” value [5] was 2.
For `Oc1ccc([C@@H]2c3c(O)cc(O)cc3[C@H]3c4c(O)cc(O)cc4[C@H]2[C@@H]3c2ccc(O)cc2)cc1`, the “fold change (FC)” value (Beta-TC6 [6]) was 3.5, the Activity (Beta-TC6 [7]) was “Active” and the “fold change (FC)” value (Beta-TC6 [8]) was 2. For the same compound, the “fold change (FC)” value [9] was 2.5, the inhibition [10] was 63% and the inhibition [11] was 85%. The Activity (Beta-TC6 [12]) was under 15% and the “fold change (FC)” value [13] was 1.5.

From ChEMBL document CHEMBL5550110, “An insight into the mechanistic role of (-)-Ampelopsin F from Vatica chinensis L. in inducing insulin secretion in pancreatic beta cells” (Bioorg Med Chem, 2024)
